Experimental data taken from patent US20030125234A1, “Alteration of protein stability” (priority 2001, published 2003).
Residues, ends and D or L forms follow the SMILES beside them.

How the values were obtained:
Type in all cases: biochemical
Bovine insulin = target: T1, Bovine insulin (Bos taurus, UniProt P01317); experiment: Insulin aggregation (turbidity at 360 nm) induced by DTT; conditions: Insulin 0.25 mg/mL, 25° C., DTT; compound 100×; standard deviation in parenthesis
T1 construct: purchased Sigma, St. Louis, Mo., USA
How it was run: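 Bovine insulin was dissolved in pH 7.0 PBS (50 mM sodium biphosphate, 100 mM sodium chloride) at 0.25 mg/mL (4.39E-5 M). Test compounds were added, then aggregation was induced with 20 μL of 1 M DTT […]. Turbidity at 360 nm was followed for 1 hour at 25° C. and compared with insulin lacking the compound.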

[1] = target: human acidic fibroblast growth factor (FGF-1) (Homo sapiens, UniProt P05230); experiment: FGF-1 thermal aggregation (turbidity at 360 nm); conditions: FGF-1 50 μg/mL, 50° C., standard deviation in parenthesis
How it was run: (§1)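 Heat-induced aggregation followed as OD360 for 1 h, cycled every 30 s: citrate synthase 96 μg/mL in HEPES/KCl/(NH4)2SO4 buffer pH 7.8 at 45° C; FGF-1 50 μg/mL in phosphate/NaCl pH 7.2 at 50° C. Rate taken as maximum slope of OD versus time, compared with protein without additive.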

[2] = target: T2, porcine heart citrate synthase (CS) (Sus scrofa, UniProt P00889); experiment: Citrate synthase thermal aggregation (turbidity at 360 nm); conditions: for inhibition index: CS 96 μg/mL, 45° C., standard deviation in parenthesis
T2 construct: porcine heart citrate synthase (CS); from tissue; host or cells: porcine heart
T2 sequence (P00889 28-464): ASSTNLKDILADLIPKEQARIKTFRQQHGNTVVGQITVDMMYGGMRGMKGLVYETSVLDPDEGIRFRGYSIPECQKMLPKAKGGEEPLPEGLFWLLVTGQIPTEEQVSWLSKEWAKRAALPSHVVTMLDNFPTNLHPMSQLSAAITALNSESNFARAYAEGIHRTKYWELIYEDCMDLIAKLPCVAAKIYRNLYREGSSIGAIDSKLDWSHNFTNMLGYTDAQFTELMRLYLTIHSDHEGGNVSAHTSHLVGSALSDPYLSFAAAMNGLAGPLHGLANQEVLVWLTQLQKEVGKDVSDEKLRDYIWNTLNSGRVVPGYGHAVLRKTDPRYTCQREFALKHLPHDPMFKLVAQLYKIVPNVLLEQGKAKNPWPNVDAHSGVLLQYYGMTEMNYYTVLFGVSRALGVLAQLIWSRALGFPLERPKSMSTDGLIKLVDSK
How it was run: as §1

[3] = target: T3, human apolactoferrin (HLF) (Homo sapiens, UniProt P02788); experiment: HLF aggregation (turbidity at 360 nm) induced by DTT; conditions: HLF 0.4 mg/mL, 43° C., DTT, head 10,000×, standard deviation in parenthesis
T3 construct: purchased Sigma
How it was run: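 Aggregation is scored as optical density at 360 nm over 1 h relative to untreated protein. Porcine somatotropin (1.27 mg/mL) is heated to 60° C in PEG 8000 (20 mg/mL); ADH (1 mg/mL) is oxidized with 7.76E-5 M Cu(OP)2 at 37° C; lysozyme and HLF (0.4 mg/mL) are reduced with 1.27E-4 M DTT at 25° C and 43° C.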

T1 sequence (P01317 25-54 limits assumed): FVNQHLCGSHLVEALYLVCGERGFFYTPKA
T1 sequence (P01317 85-105 limits assumed): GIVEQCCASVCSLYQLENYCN
human acidic fibroblast growth factor (FGF-1), sequence (P05230 whole entry): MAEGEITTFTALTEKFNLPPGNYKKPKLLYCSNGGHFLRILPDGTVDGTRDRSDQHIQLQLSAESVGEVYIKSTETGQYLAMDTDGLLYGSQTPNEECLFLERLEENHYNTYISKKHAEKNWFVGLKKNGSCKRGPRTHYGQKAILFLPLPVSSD
T3 sequence (P02788 20-710): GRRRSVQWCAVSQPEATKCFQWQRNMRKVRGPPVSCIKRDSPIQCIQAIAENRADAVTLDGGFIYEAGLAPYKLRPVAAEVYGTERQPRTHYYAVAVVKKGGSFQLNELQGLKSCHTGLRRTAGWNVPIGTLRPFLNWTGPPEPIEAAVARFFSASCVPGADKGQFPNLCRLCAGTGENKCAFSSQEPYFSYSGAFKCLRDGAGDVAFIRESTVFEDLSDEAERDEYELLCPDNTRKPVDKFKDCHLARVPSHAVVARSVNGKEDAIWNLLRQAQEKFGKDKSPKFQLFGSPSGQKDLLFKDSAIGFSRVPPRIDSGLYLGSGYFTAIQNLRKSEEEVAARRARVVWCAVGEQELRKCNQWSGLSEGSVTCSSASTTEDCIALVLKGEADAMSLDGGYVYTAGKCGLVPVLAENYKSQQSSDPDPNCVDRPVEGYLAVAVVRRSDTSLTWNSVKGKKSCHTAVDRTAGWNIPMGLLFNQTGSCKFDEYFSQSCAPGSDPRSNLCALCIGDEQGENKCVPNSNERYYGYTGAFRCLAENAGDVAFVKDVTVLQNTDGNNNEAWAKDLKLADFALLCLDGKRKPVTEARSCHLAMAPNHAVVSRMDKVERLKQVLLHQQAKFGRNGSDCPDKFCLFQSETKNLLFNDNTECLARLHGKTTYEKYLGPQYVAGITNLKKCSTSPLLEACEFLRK

Compound	inhibition index (Bovine insulin)	inhibition index ([1]; compound 1,000×)	inhibition index ([1]; compound 10,000×)	inhibition of citrate synthase aggregation, in words [2]	inhibition index ([2]; compound 1,000X)	inhibition index ([2]; compound 10,000X)	inhibition index ([2]; compound 50,000X)	inhibition index ([3]; first HLF column)	inhibition index ([3]; second HLF column)
NCC(=O)NCC(=O)NCC(=O)O [triglycine] (H-Gly-Gly-Gly-OH)	1.4 (0.1)	2.2 (1.1)	3.1 (0.9)	Potent inhibitors	1.0 (0.2)	0.7 (0.2)	1.0	0.2 (0.1)	5.7 (4.0)
Glu-Glu	1.0 (0.1)	1.3 (0.2)	7.1 (2.7)	Potent inhibitors	0.8 (0.1)	1.5 (0.1)	1430.3	9.8 (0.8)	2.1
Lys-Lys	1.1 (0.1)	1.1 (0.1)	3.1 (0.8)	–	0.9 (0.1)	1.6 (0.3)	86.8	13.5 (1.2)	11.2
diglycine	1.0 (0.2)	1.0 (0.1)	1.2 (0.4)	Potent inhibitors	0.8 (0.1)	0.9 (0.3)	1.5 (0.2)	7.4 (1.0)	10.0
tetraglycine	1.5 (0.3)	3.8 (0.8)	–	–	1.5 (0.1)	–	–	8.3 (9.5)	0.1
